IC50 data for 25 compounds are collected here from patent US7919498B2, “Substituted pyrazolo[3,4-d]pyrimidines as PI3K inhibitors” (Amgen Inc., priority 2007, dated 2011).

pIC50: −log10 of the molar value.

The target in one test is T1, PI3Kδ (Homo sapiens, UniProt O00329).
T1 construct: Full length p110 subunits of PI3k α, β and δ, N-terminally labeled with polyHis tag; polyHis (N); made in house; host or cells: Sf9 insect cells (baculovirus)
T1 sequence (O00329 whole entry): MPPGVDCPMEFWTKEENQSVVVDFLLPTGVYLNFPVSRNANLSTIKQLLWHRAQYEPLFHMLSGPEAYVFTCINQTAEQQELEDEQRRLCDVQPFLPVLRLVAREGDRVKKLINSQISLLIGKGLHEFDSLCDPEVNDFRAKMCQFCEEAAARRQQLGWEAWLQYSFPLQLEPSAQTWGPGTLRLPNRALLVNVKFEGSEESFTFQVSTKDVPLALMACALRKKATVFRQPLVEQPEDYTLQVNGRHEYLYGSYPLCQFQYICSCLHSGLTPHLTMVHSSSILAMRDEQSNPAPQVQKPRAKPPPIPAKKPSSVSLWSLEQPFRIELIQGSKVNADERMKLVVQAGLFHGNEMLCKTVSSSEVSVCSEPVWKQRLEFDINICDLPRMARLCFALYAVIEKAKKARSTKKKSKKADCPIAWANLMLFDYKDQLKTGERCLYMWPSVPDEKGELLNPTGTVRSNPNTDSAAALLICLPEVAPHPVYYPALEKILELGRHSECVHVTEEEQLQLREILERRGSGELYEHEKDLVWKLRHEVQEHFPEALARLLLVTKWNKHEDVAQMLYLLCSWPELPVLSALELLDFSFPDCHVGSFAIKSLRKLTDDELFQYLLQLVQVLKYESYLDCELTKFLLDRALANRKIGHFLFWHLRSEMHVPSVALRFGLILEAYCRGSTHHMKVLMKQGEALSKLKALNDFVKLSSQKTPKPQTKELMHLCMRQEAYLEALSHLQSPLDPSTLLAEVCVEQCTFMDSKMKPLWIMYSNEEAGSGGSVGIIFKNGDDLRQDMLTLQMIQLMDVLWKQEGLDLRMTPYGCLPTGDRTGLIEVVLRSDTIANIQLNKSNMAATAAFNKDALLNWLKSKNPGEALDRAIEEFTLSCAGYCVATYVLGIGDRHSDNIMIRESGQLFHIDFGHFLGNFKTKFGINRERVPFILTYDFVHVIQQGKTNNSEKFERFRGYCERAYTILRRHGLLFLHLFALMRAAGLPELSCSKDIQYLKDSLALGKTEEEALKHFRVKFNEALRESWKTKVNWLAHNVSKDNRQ
T1 sequence (P27986 whole entry partner): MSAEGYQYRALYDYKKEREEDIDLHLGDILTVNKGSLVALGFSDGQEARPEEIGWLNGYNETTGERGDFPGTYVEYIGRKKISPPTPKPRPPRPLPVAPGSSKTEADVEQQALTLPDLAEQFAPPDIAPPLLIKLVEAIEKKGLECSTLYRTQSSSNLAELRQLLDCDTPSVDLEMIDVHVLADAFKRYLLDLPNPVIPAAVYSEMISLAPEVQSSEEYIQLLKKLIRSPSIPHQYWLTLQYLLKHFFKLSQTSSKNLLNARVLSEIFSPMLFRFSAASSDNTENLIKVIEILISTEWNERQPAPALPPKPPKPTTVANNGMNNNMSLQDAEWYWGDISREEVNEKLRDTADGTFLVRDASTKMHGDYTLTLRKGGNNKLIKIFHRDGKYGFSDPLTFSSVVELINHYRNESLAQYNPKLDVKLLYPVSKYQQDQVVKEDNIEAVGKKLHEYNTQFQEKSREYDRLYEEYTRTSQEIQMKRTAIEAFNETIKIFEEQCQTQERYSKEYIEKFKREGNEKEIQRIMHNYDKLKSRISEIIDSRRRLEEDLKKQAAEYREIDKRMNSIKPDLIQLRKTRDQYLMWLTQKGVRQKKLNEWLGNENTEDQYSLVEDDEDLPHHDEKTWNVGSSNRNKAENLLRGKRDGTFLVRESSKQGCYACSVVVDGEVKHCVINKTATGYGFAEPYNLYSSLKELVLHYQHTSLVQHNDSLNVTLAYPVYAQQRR
Nature of the test: In vitro enzyme assay of PI3Kδ (residual ATP bioluminescence). The class given is biochemical.
Settings: not given
The method, then:
Recombinant Expression of PI3Ks
Full length p110 subunits of PI3k α, β and δ, N-terminally labeled with polyHis tag, were coexpressed with p85 with Baculo virus expression vectors in sf9 insect cells. P110/p85 heterodimers were purified by sequential Ni-NTA, Q-HP, Superdex-100 chromatography. Purified α, β and δ isozymes were stored at −20° C. in 20 mM Tris, pH 8, 0.2M NaCl, 50% glycerol, 5 mM DTT, 2 mM Na cholate. Truncated PI3Kγ, residues 114-1102, N-terminally labeled with polyHis tag, was expressed with Baculo virus in Hi5 insect cells. The γ isozyme was purified by sequential Ni-NTA, Superdex-200, Q-HP chromatography. The γ isozyme was stored frozen at −80° C. in NaH2PO4, pH 8, 0.2M NaCl, 1% ethylene glycol, 2 mM β-mercaptoethanol.
Assays were performed in 25 μL with the above final concentrations of components in white polyproplyene plates (Costar 3355). Phospatidyl inositol phosphoacceptor, PtdIns(4,5)P2 P4508, was from Echelon Biosciences. The ATPase activity of the alpha and gamma isozymes was not greatly stimulated by PtdIns(4,5)P2 under these conditions and was therefore omitted from the assay of these isozymes. Test compounds were dissolved in dimethyl sulfoxide and diluted with three-fold serial dilutions. The compound in DMSO (1 μL) was added per test well, and the inhibition relative to reactions containing no compound, with and without enzyme was determined. After assay incubation at room temperature, the reaction was stopped and residual ATP determined by addition of an equal volume of a commercial ATP bioluminescence kit (Perkin Elmer EasyLite) according to the manufacturer's instructions, and detected using a AnalystGT luminometer.
In the case of `Cc1cccc2cc(Cn3cnc4c(N)ncnc43)c(-c3ccccc3Cl)nc12` [Example 1, 9-((2-(2-Chlorophenyl)-8-methylquinolin-3-yl)methyl)-9H-purin-6-amine], the pIC50 (usually −log10 of the IC50, conventionally taken in molar units) was 5.67.

Take `Cc1cccc2cc(Cn3ccc(=O)c4c(N)ncnc43)c(-c3ccccc3Cl)nc12` [Example 2, 4-Amino-8-((2-(2-chlorophenyl)-8-methylquinolin-3-yl)methyl)pyrido[2,3-d]pyrimidin-5(8H)-one]: the pIC50 was 7.24. Still for that read-out and setting: for `Cc1ccccc1-c1nc2c(C)cccc2cc1Cn1nc(I)c2c(N)ncnc21` [Example 4, 3-Iodo-1-((8-methyl-2-o-tolylquinolin-3-yl)methyl)-1H-pyrazolo[3,4-d]pyrimidin-4-amine] the value was 8.22; for `Nc1ncnc2c1c(I)nn2Cc1cc2cccc(Cl)c2nc1-c1ccccc1Cl` [Example 5, 1-((8-Chloro-2-(2-chlorophenyl)quinolin-3-yl)methyl)-3-iodo-1H-pyrazolo[3,4-d]pyrimidin-4-amine], 7.85.

In turn, `Nc1ncnc2c1c(I)nn2Cc1cc2cccc(Cl)c2nc1-c1ccccc1C(F)(F)F` [Example 6, 1-((8-Chloro-2-(2-(trifluoromethyl)phenyl)quinolin-3-yl)methyl)-3-iodo-1H-pyrazolo[3,4-d]pyrimidin-4-amine] showed a pIC50 of 8.15.

`Cc1cccc2cc(Cn3nc(I)c4c(N)ncnc43)c(-c3ccccc3F)nc12` [Example 7, 1-((2-(2-Fluorophenyl)-8-methylquinolin-3-yl)methyl)-3-iodo-1H-pyrazolo[3,4-d]pyrimidin-4-amine]: the pIC50 is 8.40. `Cc1cccc2cc(Cn3nc(-c4cccc(O)c4)c4c(N)ncnc43)c(-c3ccccc3C(F)(F)F)nc12` [Example 8, 3-(4-Amino-1-((8-methyl-2-(2-(trifluoromethyl)phenyl)quinolin-3-yl)methyl)-1H-pyrazolo[3,4-d]pyrimidin-3-yl)phenol] showed a pIC50 of 8.10. As for `Nc1ncnc2c1c(-c1cccc(O)c1)nn2Cc1cc2cccc(Cl)c2nc1-c1ccccc1Cl` [Example 10, 3-(4-Amino-1-((8-chloro-2-(2-chlorophenyl)quinolin-3-yl)methyl)-1H-pyrazolo[3,4-d]pyrimidin-3-yl)phenol], the pIC50 is 7.85. `Cc1cccc2cc(Cn3nc(C)c4c(N)ncnc43)c(-c3ccccc3Cl)nc12` [Example 11, 1-((2-(2-Chlorophenyl)-8-methylquinolin-3-yl)methyl)-3-methyl-1H-pyrazolo[3,4-d]pyrimidin-4-amine] showed a pIC50 of 6.86.

The compound `Cc1cccc2cc(Cn3nc(-c4cn[nH]c4)c4c(N)ncnc43)c(-c3ccccc3C(F)(F)F)nc12` [Example 12, 1-((8-Methyl-2-(2-(trifluoromethyl)phenyl)quinolin-3-yl)methyl)-3-(1H-pyrazol-4-yl)-1H-pyrazolo[3,4-d]pyrimidin-4-amine] had a pIC50 of 8.10.

Consider `Cc1cccc2cc(Cn3nc(C4CC4)c4c(N)ncnc43)c(-c3ccccc3C(F)(F)F)nc12` [Example 13, 3-Cyclopropyl-1-((8-methyl-2-(2-(trifluoromethyl)phenyl)quinolin-3-yl)methyl)-1H-pyrazolo[3,4-d]pyrimidin-4-amine], for which the pIC50 is 6.83. For `Cc1cccc2cc(Cn3nc(C#CC(C)(C)O)c4c(N)ncnc43)c(-c3ccccc3C(F)(F)F)nc12` [Example 14, 4-(4-Amino-1-((8-methyl-2-(2-(trifluoromethyl)phenyl)quinolin-3-yl)methyl)-1H-pyrazolo[3,4-d]pyrimidin-3-yl)-2-methylbut-3-yn-2-ol], the pIC50 is 6.94.

In turn, `Cc1cccc2nc(-c3ccccc3Cl)c(Cn3nc(I)c4c(N)ncnc43)nc12` [Example 15, 1-((3-(2-Chlorophenyl)-8-methylquinoxalin-2-yl)methyl)-3-iodo-1H-pyrazolo[3,4-d]pyrimidin-4-amine] gave a pIC50 of 7.42.

The compound `Cc1cccc2nc(Cn3nc(I)c4c(N)ncnc43)c(-c3ccccc3Cl)nc12` [Example 16, 1-((3-(2-Chlorophenyl)-5-methylquinoxalin-2-yl)methyl)-3-iodo-1H-pyrazolo[3,4-d]pyrimidin-4-amine] gave a pIC50 of 7.68.

With `Cc1cccc2nc(-c3ccccc3Cl)c(Cn3nc(-c4cn[nH]c4)c4c(N)ncnc43)nc12` [Example 17, 1-((3-(2-Chlorophenyl)-8-methylquinoxalin-2-yl)methyl)-3-(1H-pyrazol-4-yl)-1H-pyrazolo[3,4-d]pyrimidin-4-amine], the pIC50 was 7.74. As to `Cc1cccc2nc(Cn3nc(-c4cn[nH]c4)c4c(N)ncnc43)c(-c3ccccc3Cl)nc12` [Example 18, 1-((3-(2-Chlorophenyl)-5-methylquinoxalin-2-yl)methyl)-3-(1H-pyrazol-4-yl)-1H-pyrazolo[3,4-d]pyrimidin-4-amine], the pIC50 was 7.52. On the same count and under the same terms, as for `Cc1cccc2cc(Cn3ccc4c(N)ncnc43)c(-c3ccccc3Cl)nc12` [Example 19, 7-((2-(2-Chlorophenyl)-8-methylquinolin-3-yl)methyl)-7H-pyrrolo[2,3-d]pyrimidin-4-amine], the figure is 5.71; as for `Cc1cccc2cc(Cn3cc(Cl)c4c(N)ncnc43)c(-c3ccccc3Cl)nc12` [Example 20, 5-Chloro-7-((2-(2-chlorophenyl)-8-methylquinolin-3-yl)methyl)-7H-pyrrolo[2,3-d]pyrimidin-4-amine], 7.70.

For `COc1ccccc1-n1c(Cn2ccc(=O)c3c(N)ncnc32)nc2cccc(Cl)c2c1=O` [Example 21, 4-Amino-8-((5-chloro-3-(2-methoxyphenyl)-4-oxo-3,4-dihydroquinazolin-2-yl)methyl)pyrido[2,3-d]pyrimidin-5(8H)-one], the pIC50 was 7.89. In the case of `Nc1ncnc2c1c(=O)ccn2Cc1cc2cccc(Cl)c2nc1-c1ccccc1Cl` [Example 22, 4-Amino-8-((8-chloro-2-(2-chlorophenyl)quinolin-3-yl)methyl)pyrido[2,3-d]pyrimidin-5(8H)-one], the pIC50 was 7.48.

For a further test, the system named is human B cells. The test is described as follows: Human B cells proliferation stimulated by anti-IgM. Type of test: cell-based. Particulars: B-cell; anti-Human IgM + CD40L-LZ, 72 h, 3H thymidine. As for the experimental part:
Human B Cells Proliferation Stimulate by Anti-IgM
Isolate PBMCs from Leukopac or from human fresh blood. Isolate human B cells by using Miltenyi protocol and B cell isolation kit II.—human B cells were Purified by using AutoMacs.column.
Activation of Human B Cells
Use 96 well Flat bottom plate, plate 50000/well purified B cells in B cell proliferation medium (DMEM+5% FCS, 10 mM Hepes, 50 μM 2-mercaptoethanol); 150 μL medium contain 250 ng/mL CD40L-LZ recombinant protein (Amgen) and 2 μg/mL anti-Human IgM antibody (Jackson ImmunoReseach Lab.# 109-006-129), mixed with 50 μL B cell medium containing PI3K inhibitors and incubate 72 h at 37° C. incubator. After 72 h, pulse labeling B cells with 0.5-1 uCi/well ^3H thymidine for overnight ˜18 h, and harvest cell using TOM harvester.
As to `Nc1ncnc2c1c(I)nn2Cc1nc2cccc(F)c2nc1-c1ccccc1Cl` [1-((3-(2-Chlorophenyl)-5-fluoroquinoxalin-2-yl)methyl)-3-iodo-1H-pyrazolo[3,4-d]pyrimidin-4-amine], the pIC50 was 6.26. The same measure, in the same setting: as for `Nc1ncnc2c1c(I)nn2Cc1nc2c(F)cccc2nc1-c1ccccc1Cl` [1-((3-(2-Chlorophenyl)-8-fluoroquinoxalin-2-yl)methyl)-3-iodo-1H-pyrazolo[3,4-d]pyrimidin-4-amine], the figure is 6.09; as for `Cc1cccc2nc(Cn3nc(-c4cnn(C)c4)c4c(N)ncnc43)c(-c3ccccc3Cl)nc12` [1-((3-(2-chlorophenyl)-5-methylquinoxalin-2-yl)methyl)-3-(1-methyl-1H-pyrazol-4-yl)-1H-pyrazolo[3,4-d]pyrimidin-4-amine], 7.43. For the compound `Cc1cccc2nc(-c3ccccc3Cl)c(Cn3nc(-c4cnn(C)c4)c4c(N)ncnc43)nc12` [1-((3-(2-chlorophenyl)-8-methylquinoxalin-2-yl)methyl)-3-(1-methyl-1H-pyrazol-4-yl)-1H-pyrazolo[3,4-d]pyrimidin-4-amine], the pIC50 is 7.70. Same read-out and setting: as for `Nc1ncnc2c1c(-c1cn[nH]c1)nn2Cc1cc2cccc(Cl)c2nc1-c1ccccc1F` [1-((8-chloro-2-(2-fluorophenyl)-3-quinolinyl)methyl)-3-(1H-pyrazol-4-yl)-1H-pyrazolo[3,4-d]pyrimidin-4-amine], the figure is 7.74.
